These results are taken from patent publication US10357526B2, “Compositions for the treatment of infections caused by mite Demodex spp” (PROCAPS S.A., priority 2014, dated 2019).

This experiment deals with Demodex Spp. The experiment in a line: Evaluation of the solvent action on the survival of mites. To be noted: for Average life time of Acaro (mites) in the solvents: neat solvent. The source says:
Before evaluating the miticide effect of each of the oils, miscibility and safety thereof on mites was studied.

Turning to `CCCCCCCCCCCCCC(=O)OC(C)C` [Isopropyl Myristate], the “Average life time of Acaro (mites) in the solvents” value (shortened to “Average life time of Acaro (mites)”) was 3.37 h.
For `CCCCCCCC/C=C\CCCCCCCC(=O)OCCCCCCCCCC` [Cetiol V, decyl oleate], the “Average life time of Acaro (mites)” value was found to be 8 h. In addition, the “Acaricidal activity of the diluent” value (within 8 hours) is “did not have acaricidal activity”.
In the case of PEG-7 Glycerol Cocoate [Cetiol HE], the “Average life time of Acaro (mites)” value was found to be 0.08938 h.
The same measure, in the same setting: the same measure for `CCO` [Absolute Ethanol]: 0.03434 h.
